Laboratory results published in PubChem BioAssay AID1259407 (Chemical Carcinogenesis Research Information System (CCRIS), 2018).
The source made the active and inactive calls. The rule behind the calls is not given here. *1 amine or outer side, *2 acyl side, *3 side chain or, on linkers, in order; H or OH if unused. Where a SMILES comes first, the peptide text is derived from it. Bridges are numbered along the chain shown (N, C = ends). Roman numbers before positions name the chains, in order. [ ]: non-standard residue; d: D form. Actinocin(9to1) = Cc1c2oc3c(C)ccc(C(=O)[*:1])c3nc-2c(C(=O)[*:2])c(N)c1=O; NMeV = CN[C@H](C(=O)O)C(C)C; Sar = CNCC(=O)O

System: CCRIS mutagenicity, Ames/micronucleus/aberration tests
Test: CCRIS mutagenicity studies
[1] = Test System: AMES SALMONELLA TYPHIMURIUM, Strain/Indicator: TA98, Metabolic Activation: NONE, Method: PREINCUBATION
[2] = Test System: AMES SALMONELLA TYPHIMURIUM, Strain/Indicator: TA100, Metabolic Activation: NONE, Method: PREINCUBATION
[3] = Test System: AMES SALMONELLA TYPHIMURIUM, Strain/Indicator: TA98, Metabolic Activation: NONE, Method: STANDARD PLATE
[4] = Test System: AMES SALMONELLA TYPHIMURIUM, Strain/Indicator: TA100, Metabolic Activation: NONE, Method: STANDARD PLATE
[5] = Test System: AMES SALMONELLA TYPHIMURIUM, Strain/Indicator: TA100, Metabolic Activation: RAT, LIVER, S-9, PCB, Method: PREINCUBATION
[6] = Test System: AMES SALMONELLA TYPHIMURIUM, Strain/Indicator: TA98, Metabolic Activation: RAT, LIVER, S-9, AROCLOR 1254, Method: STANDARD PLATE

Q: With `COC(=O)Nc1cccc(OC(=O)Nc2cccc(C)c2)c1` as the compound, how does the mutagenic call (Test System: AMES SALMONELLA TYPHIMURIUM, Strain/Indicator: TA97, Metabolic Activation: HAMSTER, LIVER, S-9, AROCLOR 1254 (30%), Method: PREINCUBATION) read?
A: inactive; negative

Q: What about the mutagenic call (Test System: AMES SALMONELLA TYPHIMURIUM, Strain/Indicator: TA97, Metabolic Activation: NONE, Method: PREINCUBATION) of the same compound?
A: inactive; negative

Q: And the mutagenic call (Test System: AMES SALMONELLA TYPHIMURIUM, Strain/Indicator: TA97, Metabolic Activation: RAT, LIVER, S-9, AROCLOR 1254 (30%), Method: PREINCUBATION)?
A: inactive; negative

Q: And the mutagenic call (Test System: AMES SALMONELLA TYPHIMURIUM, Strain/Indicator: TA98, Metabolic Activation: HAMSTER, LIVER, S-9, AROCLOR 1254 (10 OR 30%), Method: PREINCUBATION)?
A: inactive; negative

Q: And the mutagenic call (Test System: AMES SALMONELLA TYPHIMURIUM, Strain/Indicator: TA98, Metabolic Activation: HAMSTER, LIVER, S-9, AROCLOR 1254 (30%), Method: PREINCUBATION)?
A: active; positive

Q: What about the mutagenic call [1] of the same compound?
A: inactive; negative

Q: And the mutagenic call (Test System: AMES SALMONELLA TYPHIMURIUM, Strain/Indicator: TA98, Metabolic Activation: RAT, LIVER, S-9, AROCLOR 1254 (30%), Method: PREINCUBATION)?
A: inactive; negative

Q: And the mutagenic call (Test System: AMES SALMONELLA TYPHIMURIUM, Strain/Indicator: TA100, Metabolic Activation: HAMSTER, LIVER, S-9, AROCLOR 1254 (30%), Method: PREINCUBATION)?
A: inactive; negative

Q: And the mutagenic call [2]?
A: inactive; negative

Q: What about the mutagenic call (Test System: AMES SALMONELLA TYPHIMURIUM, Strain/Indicator: TA100, Metabolic Activation: RAT, LIVER, S-9, AROCLOR 1254 (30%), Method: PREINCUBATION) of the same compound?
A: inactive; negative

Q: What about the mutagenic call (Test System: AMES SALMONELLA TYPHIMURIUM, Strain/Indicator: TA1538, Metabolic Activation: HAMSTER, LIVER, S-9, AROCLOR 1254 (10%), Method: PREINCUBATION) of the same compound?
A: inactive; negative

Q: And the mutagenic call (Test System: AMES SALMONELLA TYPHIMURIUM, Strain/Indicator: TA1538, Metabolic Activation: HAMSTER, LIVER, S-9, AROCLOR 1254 (30%), Method: PREINCUBATION)?
A: active; positive

Q: What about the mutagenic call (Test System: AMES SALMONELLA TYPHIMURIUM, Strain/Indicator: TA1538, Metabolic Activation: NONE, Method: PREINCUBATION) of the same compound?
A: inactive; negative

Q: What about the mutagenic call (Test System: AMES SALMONELLA TYPHIMURIUM, Strain/Indicator: TA1538, Metabolic Activation: RAT, LIVER, S-9, AROCLOR 1254 (30%), Method: PREINCUBATION) of the same compound?
A: inactive; negative

Q: Which results are given for `COc1cccc(NC(=O)c2csc([N+](=O)[O-])c2)c1`?
A: mutagenic call [3]: active; positive; mutagenic call [4]: active; positive

Q: For `O=C1c2ccccc2C(=O)c2c(O)cc(O)cc21`, which mutagenic call [1] is on record?
A: inactive; negative

Q: And the mutagenic call (Test System: AMES SALMONELLA TYPHIMURIUM, Strain/Indicator: TA98, Metabolic Activation: RAT, LIVER, S-9, PCB, Method: PREINCUBATION)?
A: active; positive

Q: And the mutagenic call [2]?
A: inactive; negative

Q: And the mutagenic call [5]?
A: active; positive

Q: What about the mutagenic call (Test System: AMES SALMONELLA TYPHIMURIUM, Strain/Indicator: TA1537, Metabolic Activation: NONE, Method: PREINCUBATION) of the same compound?
A: active; positive

Q: And the mutagenic call (Test System: AMES SALMONELLA TYPHIMURIUM, Strain/Indicator: TA1537, Metabolic Activation: RAT, LIVER, S-9, Method: PREINCUBATION)?
A: active; positive

Q: What about the mutagenic call (Test System: CHINESE HAMSTER V-79, Strain/Indicator: V-79/8-AZAGUANINE, Metabolic Activation: NONE, Method: STANDARD PLATE) of the same compound?
A: active; positive

Q: What about the mutagenic call (Test System: CHINESE HAMSTER V-79, Strain/Indicator: V-79/8-AZAGUANINE, Metabolic Activation: PRIMARY RAT HEPATOCYTES, Method: STANDARD PLATE) of the same compound?
A: active; positive

Q: And the mutagenic call (Test System: UDS RODENT HEPATOCYTES, Strain/Indicator: THY INCORP (NON-S-PHASE), Metabolic Activation: NONE, Method: AUTORADIOGRAPHY)?
A: active; positive

Q: Which mutagenic call [2] does the source give for `CCCCN(C[C@H](CO)OCc1ccccc1)N=O` here?
A: inactive; negative

Q: And the mutagenic call [5]?
A: active; positive

Q: What does the source list for `COC(=O)C12OC1(C)C(C)(O)OC2=O` (stereo not given)?
A: mutagenic call (Test System: AMES SALMONELLA TYPHIMURIUM, Strain/Indicator: TA98, Metabolic Activation: NONE, Method: DISK ASSAY): inactive; negative; mutagenic call [3]: inactive; negative; mutagenic call (Test System: AMES SALMONELLA TYPHIMURIUM, Strain/Indicator: TA98, Metabolic Activation: RAT, LIVER, S-9, AROCLOR 1254, Method: DISK ASSAY): inactive; negative; mutagenic call [6]: active; positive; mutagenic call [4]: inactive; negative; mutagenic call (Test System: AMES SALMONELLA TYPHIMURIUM, Strain/Indicator: TA100, Metabolic Activation: RAT, LIVER, S-9, AROCLOR 1254, Method: STANDARD PLATE): inactive; negative

Q: Which mutagenic call (Test System: AMES SALMONELLA TYPHIMURIUM, Strain/Indicator: TA98, Metabolic Activation: RAT, LIVER, S-9, AROCLOR, Method: STANDARD PLATE) does the source give for `Cc1nc2c(cc(C)c3ccc4ccc(O)cc4c32)[nH]1` here?
A: active; positive

Q: `ONc1cccc2ccccc12` was tested. Which mutagenic call [3] did it give?
A: active; positive

Q: And the mutagenic call [4]?
A: active; positive

Q: With `CNc1ccc(C(=C2C=CC(=[N+](C)C)C=C2)c2ccc(N(C)C)cc2)cc1` as the compound, how does the mutagenic call (Test System: AMES SALMONELLA TYPHIMURIUM, Strain/Indicator: TA100, Method: PREINCUBATION) read?
A: active; positive

Q: `CCOc1ccc2c(c1)C(C)=CC(C)(C)N2` was tested. Which mutagenic call [3] did it give?
A: inactive; negative

Q: What about the mutagenic call (Test System: AMES SALMONELLA TYPHIMURIUM, Strain/Indicator: TA98, Metabolic Activation: S-9, Method: STANDARD PLATE) of the same compound?
A: inactive; negative

Q: And the mutagenic call [4]?
A: inactive; negative

Q: What about the mutagenic call (Test System: AMES SALMONELLA TYPHIMURIUM, Strain/Indicator: TA100, Metabolic Activation: S-9, Method: STANDARD PLATE) of the same compound?
A: inactive; negative

Q: With `Cc1c2oc3c(C)ccc(C(=O)N[C@@H]4C(=O)N[C@H](C(C)C)C(=O)N5CCC[C@H]5C(=O)N(C)CC(=O)N(C)[C@@H](C(C)C)C(=O)O[C@@H]4C)c3nc-2c(C(=O)N[C@@H]2C(=O)N[C@H](C(C)C)C(=O)N3CCC[C@H]3C(=O)N(C)CC(=O)N(C)[C@@H](C(C)C)C(=O)O[C@@H]2C)c(N)c1=O` (I: T[dV]P[Sar][NMeV] / II: T[dV]P[Sar][NMeV]; ester I:1-I:C, II:1-II:C; linker I:N-II:N via Actinocin(9to1)) as the compound, how does the mutagenic call (End Point: IN VITRO MICRONUCLEUS, Test System: CHO CELLS, Metabolic Activation: RAT, LIVER, S-9, AROCLOR 1254) read?
A: active; positive

Q: And the mutagenic call (End Point: IN VITRO MICRONUCLEUS, Test System: V79 CELLS, Metabolic Activation: NONE)?
A: active; positive

Q: What about the mutagenic call [3] of the same compound?
A: inactive; negative

Q: What about the mutagenic call [4] of the same compound?
A: inactive; negative

Q: What about the mutagenic call (Test System: AMES SALMONELLA TYPHIMURIUM, Strain/Indicator: TA102, Metabolic Activation: NONE, Method: STANDARD PLATE) of the same compound?
A: inactive; negative

Q: What about the mutagenic call (Test System: AMES SALMONELLA TYPHIMURIUM, Strain/Indicator: TA1537, Metabolic Activation: NONE, Method: STANDARD PLATE) of the same compound?
A: inactive; negative

Q: What about the mutagenic call (Test System: E. COLI, Strain/Indicator: WP2 (HCR), Metabolic Activation: NONE, Method: STANDARD PLATE) of the same compound?
A: inactive; negative

Q: And the mutagenic call (Test System: MOUSE LYMPHOMA, Strain/Indicator: L5178Y (TK+/TK-), Metabolic Activation: NONE, Method: SUSPENSION/PLATE)?
A: active; positive

Q: Which mutagenic call [4] does the source give for `NC(=O)OC[C@H](O)[C@@H](O)[C@H](N)C(=O)N[C@H](C(=O)[O-])[C@H]1O[C@@H](n2cc(C(=O)[O-])c(=O)[nH]c2=O)[C@H](O)[C@@H]1O.[Zn+2]` here?
A: active; positive

Q: And the mutagenic call (Test System: AMES SALMONELLA TYPHIMURIUM, Strain/Indicator: TA100, Metabolic Activation: S-9 MIX, Method: STANDARD PLATE)?
A: active; positive

Q: How did the mutagenic call (Test System: AMES SALMONELLA TYPHIMURIUM, Strain/Indicator: TA1535, Metabolic Activation: NONE) turn out when `CCCCN=NC(C)(C)OO` was run?
A: active; positive

Q: What about the mutagenic call (Test System: E. COLI, Strain/Indicator: WP2 (HCR-), Metabolic Activation: NONE) of the same compound?
A: active; positive

Q: Which results are given for `O=C(Nc1ccccc1Cl)c1csc([N+](=O)[O-])c1`?
A: mutagenic call [3]: active; positive; mutagenic call [4]: active; positive

Q: What does the source list for `c1cc2ccc3cc4ccoc4c4ccc(c1)c2c34`?
A: mutagenic call [3]: inactive; negative; mutagenic call [6]: active; positive

Q: With `c1cc(OCC2CO2)c2sncc2c1` (stereo not given) as the compound, how does the mutagenic call [4] read?
A: active; positive

Q: How did the mutagenic call (End Point: In vitro chromosomal aberrations, Test System: Human lymphocytes/Male, Metabolic Activation: None) turn out when `Cc1nn(C)c(Oc2ccccc2)c1/C=N/OCc1ccc(C(=O)OC(C)(C)C)cc1` was run?
A: inactive; negative

Q: And the mutagenic call (End Point: In vitro chromosomal aberrations, Test System: Human lymphocytes/Male, Metabolic Activation: Rat, Liver, S-9)?
A: inactive; negative

Q: And the mutagenic call (End Point: In vivol micronucleus, Species: Mouse, Strain/Sex: CD-1, Route: Oral)?
A: inactive; negative

Q: What does the source list for `O=[N+]([O-])c1cc2[nH]c3ccc4ccccc4c3c2c2ccccc12`?
A: mutagenic call [3]: inactive; negative; mutagenic call (Test System: AMES SALMONELLA TYPHIMURIUM, Strain/Indicator: TA98, Metabolic Activation: RAT, LIVER, S-9, 3-METHYLCHOLANTHRENE, Method: STANDARD PLATE): active; positive; mutagenic call [4]: inactive; negative; mutagenic call (Test System: AMES SALMONELLA TYPHIMURIUM, Strain/Indicator: TA100, Metabolic Activation: RAT, LIVER, S-9, 3-METHYLCHOLANTHRENE, Method: STANDARD PLATE): inactive; negative
